Laboratory results: EP0325762B1, “Macrocyclic chelating agents and chelates thereof” (BRACCO S.p.A., priority 1987, dated 1989)

Legend:
mouse = assay: Determination of LD50 in the mouse by intravenous administration; type: in vivo; settings: male and female mice, Strain: Crl:CDl(ICR)BR, range in parentheses
Description: Determination of LD₅₀ in the mouse by intravenous administration of the compounds of the present invention. In table II are reported, as non-limiting examples, the LD₅₀ values for compounds A and B of the present invention, in comparison with GdCl₃ and with Gd/DTPA neutralized with N-methylglucamine.

[1] = Determination of relaxivity (longitudinal R1 by Inversion Recovery, transverse R2 by Carr-Purcell-Meiboom-Gill sequence, MINISPEC PC 120 BRUKER); type: physicochemical; settings: 20 MHz (proton), 39°C, pH 7.3, 0 to 5 mM, water; for R₁: longitudinal relaxivity; for R₂: transverse relaxivity
Description: Determination of the relaxivity of the compounds of the present invention.
Longitudinal relaxivity (R₁) measurements were calculated using the "Inversion Recovery" sequence with an 8 point minimum and a 3 parameter fit, according to the program provided for the MINISPEC […] BRUKER instrument, by which measurements were taken.
Transverse relaxivity (R₂) measurements were calculated using the sequence of Carr, Purcell, Meiboom and Gill, according to the program provided for the MINISPEC 120 BRUKER instrument, by means of which measurements were taken, adjusting the apparatus in such a way as to observe the decay of the signal to about 1/3 of the starting value, with a score number higher or equal to 10 and a 2 parameter fit.
In table I, R₁ and R ₂ values calculated for compounds A and B in comparison with Gd/DTPA neutralized with N-methylglucamine, are reported as non-limiting examples.

Compound	LD₅₀ in the mouse* in mmol/kg - intravenous (mouse)	R₁ ([1]; solvent 0.154 M (0.9%)) [mM/s]	R₂ ([1]; solvent 0.154 M (0.9%)) [mM/s]	R₁ ([1]; solvent 0.154 M NaCl (0.9%)) [mM/s]	R₂ ([1]; solvent 0.154 M NaCl (0.9%)) [mM/s]
[Cl][Gd]([Cl])[Cl] [GdCl₃, reference compound]	0.28 (0.24 - 0.32) mmol/kg				
CNC[C@H](O)[C@@H](O)[C@H](O)[C@H](O)CO.CNC[C@H](O)[C@@H](O)[C@H](O)[C@H](O)CO.O=C([O-])CN(CCN(CC(=O)[O-])CC(=O)O)CCN(CC(=O)[O-])CC(=O)O.[Gd+3] [Gd/DTPA, reference compound]	4.8 (4.47 - 5.16) mmol/kg	4.08 ± 0.01	5.15 ± 0.02		
C[NH2+]C[C@H](O)[C@@H](O)[C@H](O)[C@H](O)CO.O=C([O-])CN1CCN(CC(=O)[O-])CCN(C(CO)C(=O)[O-])CCN(CC(=O)[O-])CC1.[Gd+3] (stereo not shown) [B, Gd^(3+)/2-[1,4,7,10-tetraaza-4,7,10-tri(carboxymethyl)-cyclododecane-1-yl]-3-hydroxypropionic acid, neutralized with N-methylglucamine]	13.1 (12.2 - 14.1) mmol/kg			3.72 ± 0.01	5.06 ± 0.01
C[NH2+]C[C@H](O)[C@@H](O)[C@H](O)[C@H](O)CO.O=C([O-])CN1CCN(CC(=O)[O-])CCN(C(COCc2ccccc2)C(=O)[O-])CCN(CC(=O)[O-])CC1.[Gd+3] (stereo not shown) [A, Gd^(3+)/2-[1,4,7,10-tetraaza-4,7,10-tri(carboxymethyl)-cyclododecane-1-yl]-3-benzyloxypropionic acid, neutralized with N-methylglucamine]	8.8 (7.79 - 9.94) mmol/kg			4.15 ± 0.01	5.67 ± 0.02
